Where two headings read alike, the source gives them in different places. Starred links: 1 amine or outer side, 2 acyl side, 3 side chain; linkers in the order of their positions; H or OH if unused. Non-standard residues stand in square brackets, D forms with d. Residues, ends and D or L forms follow the SMILES beside them. *: point of attachment. Sta = CC(C)C[C@H](N)[C@@H](O)CC(=O)O; AMC = Cc1cc(=O)oc2cc(N*)ccc12; Isovaleryl = CC(C)CC(=O)*; code Z = not defined here; Cbz = O=C(OCc1ccccc1)*; CO = O=C([*:1])[*:2]; CH2F = FC*

For assay [1], the target named is T1, Atmc9 (Arabidopsis thaliana, UniProt Q9FYE1).
T1 construct: it indeed consists of amino acids 184 to 325 (calculated mass 15427 Da); made in house; host or cells: E. coli BL21(DE3), pDEST17, Ni-NTA purified
T1 sequence (Q9FYE1 1-183 limits assumed): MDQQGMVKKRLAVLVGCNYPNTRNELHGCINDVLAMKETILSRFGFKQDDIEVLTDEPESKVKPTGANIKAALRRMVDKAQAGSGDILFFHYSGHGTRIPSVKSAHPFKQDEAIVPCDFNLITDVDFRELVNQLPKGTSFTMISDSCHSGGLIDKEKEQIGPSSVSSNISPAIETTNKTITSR
T1 sequence (Q9FYE1 184-325 limits assumed): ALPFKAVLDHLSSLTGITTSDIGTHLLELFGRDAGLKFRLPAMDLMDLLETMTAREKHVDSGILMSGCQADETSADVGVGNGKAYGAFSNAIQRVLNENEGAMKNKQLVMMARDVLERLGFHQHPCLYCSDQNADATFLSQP
The class given is biochemical. The conditions noted are these: for inhibition / inactivation of Atmc9: no concentration stated; for inhibition of Atmc9 activity: at the millimolar range. On the procedure:
Assays were performed in 150 μl with 400 ng of purified Atmc9 and 50 μM substrate in an optimized metacaspase 9 assay buffer (50 mM MES pH 5.3, 10% (w/v) sucrose, 0.1% (w/v) 3-[(3-cholamidopropyl)dimethylammonio]-1-propanesulfonate [CHAPS], 10 mM DTT). Time-dependent release of free amido-4-methylcoumarin (AMC) was measured on a Cytofluor 4000 fluorescence microplate reader (PerSeptive Biosystems, Farmingham, Md., USA).
We also assessed the sensitivity of Atmc9 for several protease inhibitors, chelating agents, metal ions, and stabilizing agents in the GKR-ase assay (Table 2). […] To optimize the assay conditions for Atmc9 activity, several stabilizing agents were tested.
Percentage of the activity of recombinant Atmc9 in 50 mM MES (pH 5.3) and 10 mM DTT.

The subject of assay [2] is Lysates from 293T cells overexpressing metacaspases. The assay can be described thus: Caspase substrates incubated with lysates from 293T cells overexpressing metacaspases. The class given is biochemical, Arabidopsis thaliana. The protocol:
For mammalian overexpression, cDNAs for metacaspases were cloned into pDEST26 (Invitrogen, Gaithersburg, Md., USA), resulting in an N-terminal HIS6-fusion under transcriptional control of the constitutive CMV promoter. Human embryonic kidney cells 293T were cultured in DMEM supplemented with 2 mM L-glutamine, 10% fetal calf serum, 106 U/i streptomycin, […] penicillin and 0.4 mM sodium pyruvate. 5×10^5 cells (6 well plate) were seeded and next day transfected using the calcium phosphate method as described previously (Van de Craen et al., 1998).
Lysates from 293T cells overexpressing metacaspases were also incubated with different synthetic fluorigenic substrates for caspases, namely acetyl-Asp-Glu-Val-Asp-aminomethylcoumarin (Ac-DEVD-amc), acetyl-Ile-Glu-Thr-Asp-aminomethylcoumarin (Ac-IETD-amc), Acetyl-Leu-Glys-His-Asp-aminomethylcoumarin (Ac-LEHD-amc), acetyl-Trp-Glu-His-Asp-aminomethylcoumarin (Ac-WEHD-amc), Acetyl-Tyr-Val-Ala-Asp-aminomethylcoumarin (Ac-YVAD-amc) and benzyloxycarbonyl-Val-Ala-Asp-aminomethylcoumarin (zVAD-amc).

Assay [3] deals with T1, Atmc9. The assay can be described thus: kcat/Km of artificial substrates of Atmc9. The conditions noted are these: summary of Table 1. The assay is classed as biochemical. On the procedure: The activity assay buffer used was composed of 50 mM MES pH 5.3, 10% (w/v) sucrose, 0.1% (w/v) 3-[(3-cholamidopropyl)dimethylammonio]-1-propanesulfonate [CHAPS], 10 mM DTT.
Release of free AMC was determined in a time course using a FLUOstar Optima fluorescence plate reader (BMB Lab Technologies, Offenburg, Del.). After total hydrolysis of the substrates, kcatlKm was calculated using the following formula: kcat/Km=kobsIEt, where kobs is determined as the decrease per second of the natural logarithm of substrate left, and Et is the concentration of enzyme active sites in the reaction.

Assay [4] addresses T2, metacaspase 3 (Arabidopsis thaliana, UniProt Q9FMG1).
T2 construct: made in house; host or cells: bacterial production, pDEST17 (E. coli by the general method)
T2 sequence (Q9FMG1 1-362 R151K/L157V/V158I/Q177E): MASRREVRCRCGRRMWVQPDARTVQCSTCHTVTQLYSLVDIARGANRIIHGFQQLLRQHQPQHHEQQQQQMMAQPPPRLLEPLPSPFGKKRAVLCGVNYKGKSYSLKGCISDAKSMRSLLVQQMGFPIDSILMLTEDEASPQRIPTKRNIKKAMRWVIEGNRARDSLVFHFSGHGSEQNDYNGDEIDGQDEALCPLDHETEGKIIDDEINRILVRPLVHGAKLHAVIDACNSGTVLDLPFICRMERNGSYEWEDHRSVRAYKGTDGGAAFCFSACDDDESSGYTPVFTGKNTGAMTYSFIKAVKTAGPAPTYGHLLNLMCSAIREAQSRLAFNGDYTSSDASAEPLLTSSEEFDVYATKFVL
The assay can be described thus: Cleavage of fluorescent artificial substrates by purified metacaspase 3. The conditions noted are these: assay buffers of pHs ranging from 4.5 to 9.0 (MES 50 mM). The assay is classed as biochemical. From the text:
For generation of the prodomain deletion mutant of Arabidopsis thaliana metacaspase 3 (MC3ΔN), residues 1 to 91 were replaced by a methionine residue by PCR, using 5′-[…]-3′ (SEQ ID NO:43) as the forward primer and 5′-[…]-3′ (SEQ ID NO:17) as the reverse primer. 5′ extensions used for Gateway™ (Invitrogen) cloning were 5′-[…]-3′ (SEQ ID NO:44) for forward primers and 5′-[…]-3′ (SEQ ID NO:45) for reverse primers. For bacterial production, the cDNA's were cloned into the bacterial expression vector pDEST17™ (Invitrogen), resulting in the amino-terminal translational addition of the following HIS6 tag-containing sequence: […] (SEQ ID NO:37).
Activity of purified metacaspase 3 was tested with different fluorescent substrates in assay buffers of pHs ranging from 4.5 to 9.0 (MES 50 mM). The substrates tested were: Ac-DEVD-AMC, Z-VAD-AMC, Boc-GRR-AMC, Boc-GKR-AMC, Z-FR-AMC and H-AFK-AMC. Only Z-FR-AMC was cut by metacaspase 3.

As to `CC(C)C[C@H](NC(=O)[C@H]1O[C@@H]1C(=O)O)C(=O)NCCCCN=C(N)N` (relative stereo) [E-64, L-trans-epoxysuccinyl-leucylamide-(4-guanido)-butane], the “inhibition / inactivation of Atmc9” value in assay [1] is listed as “no significant blocking capacity”. Also, the “Activity (%)” value in assay [1] (pH 5.3) worked out at 92%.

Consider `CC(C)[C@H](NC(=O)[C@H](CCCNC(=N)N)NC(=O)N[C@@H](Cc1ccccc1)C(=O)O)C(=O)N[C@H](C=O)CCCNC(=N)N` [Antipain] ({Phe-CO}-Arg-Val-Arg-aldehyde), for which, in assay [1] (pH 5.3), the “Activity (%)” value worked out at 13%.

Turning to `N=C(N)c1ccccc1` [Benzamidine], in assay [1], the “inhibition of Atmc9 activity” value was “inhibited”. The “Activity (%)” value in assay [1] (pH 5.3) was 22%.

Take `C[C@H](CCC(=O)NCCC[N+](C)(C)CCCS(=O)(=O)[O-])[C@H]1CC[C@H]2[C@@H]3[C@H](O)C[C@@H]4C[C@H](O)CC[C@]4(C)[C@H]3C[C@H](O)[C@]12C` [CHAPS, 3-[(3-cholamidopropyl)dimethylammonio]-1-propanesulfonate]: the “Activity (%)” value in assay [1] (pH 5.3) is 127%.

`CC(C)C[C@H](NC(=O)[C@@H](NC(=O)N[C@@H](Cc1ccccc1)C(=O)O)[C@@H]1CCN=C(N)N1)C(=O)N[C@H](C=O)Cc1ccccc1` [Chymostatin]: the “inhibition / inactivation of Atmc9” value in assay [1] is recorded as “weak inhibitors”. Further, in assay [1] (pH 5.3), the “Activity (%)” value is reported as 33%.

Turning to `NC(=O)CI` [Iodoacetamide], the “inhibition of Atmc9 activity” value in assay [1] was “inhibited”. The “Activity (%)” value in assay [1] (pH 5.3) is 8%.

As for `CC(=O)N[C@@H](CC(C)C)C(=O)N[C@@H](CC(C)C)C(=O)N[C@H](C=O)CCCNC(=N)N` [Leupeptin], in assay [1] (at concentrations as low as 1 μM), the “inhibition of Atmc9” value is on record as “strongly inhibited”. Besides, the “Activity (%)” value in assay [1] (pH 5.3) was determined as 1%.

`O=S(=O)(F)Cc1ccccc1` [PMSF]: the “inhibition / inactivation of Atmc9” value in assay [1] was “no significant blocking capacity”. Besides, the “Activity (%)” value in assay [1] (reagent 1 mM, % of activity of recombinant Atmc9 in 50 mM MES pH 5.3, 10 mM DTT) is recorded as 86%.

With `CC(C)CC(=O)N[C@H](C(=O)N[C@H](C(=O)N[C@@H](CC(C)C)[C@@H](O)CC(=O)N[C@@H](C)C(=O)N[C@@H](CC(C)C)[C@@H](O)CC(=O)O)C(C)C)C(C)C` [Pepstatin] (Isovaleryl-VV[Sta]A[Sta]-OH), in assay [1], the “inhibition / inactivation of Atmc9” value is recorded as “no significant blocking capacity”. Also, the “Activity (%)” value in assay [1] (pH 5.3) came to 97%.

Take `OC[C@H]1O[C@@](CO)(O[C@H]2O[C@H](CO)[C@@H](O)[C@H](O)[C@H]2O)[C@@H](O)[C@@H]1O` [Sucrose]: the “Activity (%)” value in assay [1] (pH 5.3) amounted to 121%.

In the case of `Cc1ccc(S(=O)(=O)N[C@@H](Cc2ccccc2)C(=O)CCl)cc1` [TPCK, N^□-tosyl-L-phenylalanyl-chloromethyl ketone], the “inhibition / inactivation of Atmc9” value in assay [1] is given as “weak inhibitors”. Besides, the “Activity (%)” value in assay [1] (pH 5.3) was 35%.

For the molecule “Acetyl-Leu-Glys-His-Asp-aminomethylcoumarin [Ac-LEHD-amc]”, the “activity of lysates on synthetic fluorigenic caspase substrates” value (“activity of lysates” for short) in assay [2] is recorded as “no significant increase in activity”.

With “Acetyl-Tyr-Val-Ala-Asp-aminomethylcoumarin (Ac-YVAD-{AMC}; SMILES CC(=O)N[C@@H](Cc1ccc(O)cc1)C(=O)N[C@H](C(=O)N[C@@H](C)C(=O)N[C@@H](CC(=O)O)C(=O)Nc1ccc2c(C)cc(=O)oc2c1)C(C)C) [Ac-YVAD-amc]”, the “activity of lysates” value in assay [2] was “no significant increase in activity”.

Consider Aprotinin, for which the “inhibition / inactivation of Atmc9” value in assay [1] was “no significant blocking capacity”. Also, in assay [1] (pH 5.3), the “Activity (%)” value is on record as 96%.

For the molecule “H-Ala-Phe-Lys-7-amido-4-methylcoumarin (H-Ala-Phe-Lys-{AMC}; SMILES Cc1cc(=O)oc2cc(NC(=O)[C@H](CCCCN)NC(=O)[C@H](Cc3ccccc3)NC(=O)[C@H](C)N)ccc12) [H-AFK-AMC]”, the “quality as substrate for Atmc9” value in assay [3] was “less efficiently cleaved”. Further, in assay [4], the “cleavage by metacaspase 3” value was “No activity was detected”.

On to “Z-DEVD-cmk: caspase inhibitor; cmk, chloromethyl ketone”, for which, in assay [1] (pH 5.3), the “Activity (%)” value came to 94%.

On to “Z-VAD-fmk: caspase inhibitor; fmk, fluoromethyl ketone ({code Z}-Val-Ala-Asp-CH2F; reading uncertain; also: printed as Z-VAD-fmk)”, for which, in assay [1] (pH 5.3), the “Activity (%)” value turned out to be 87%.

For “Z-YVAD-cmk: caspase inhibitor; cmk, chloromethyl ketone”, in assay [1] (pH 5.3), the “Activity (%)” value was 100%.

Turning to “acetyl-Asp-Glu-Val-Asp-aminomethylcoumarin [Ac-DEVD-AMC]”, the “cleavage by metacaspase 3” value in assay [4] is “No activity was detected”. The “activity of lysates” value in assay [2] is “no significant increase in activity”.

Consider “acetyl-Ile-Glu-Thr-Asp-aminomethylcoumarin (Ac-IETD-{AMC}; SMILES CC[C@H](C)[C@H](NC(C)=O)C(=O)N[C@@H](CCC(=O)O)C(=O)N[C@H](C(=O)N[C@@H](CC(=O)O)C(=O)Nc1ccc2c(C)cc(=O)oc2c1)[C@@H](C)O) [Ac-IETD-amc]”, for which the “activity of lysates” value in assay [2] was “no significant increase in activity”.

In the case of “acetyl-Trp-Glu-His-Asp-aminomethylcoumarin (Ac-WEHD-{AMC}; SMILES CC(=O)N[C@@H](Cc1c[nH]c2ccccc12)C(=O)N[C@@H](CCC(=O)O)C(=O)N[C@@H](Cc1c[nH]cn1)C(=O)N[C@@H](CC(=O)O)C(=O)Nc1ccc2c(C)cc(=O)oc2c1) [Ac-WEHD-amc]”, in assay [2], the “activity of lysates” value is reported as “no significant increase in activity”.

For the molecule “benzyloxycarbonyl-Val-Ala-Asp-aminomethylcoumarin (Cbz-Val-Ala-Asp-{AMC}) [Z-VAD-AMC]”, the “cleavage by metacaspase 3” value in assay [4] is recorded as “No activity was detected”. Moreover, in assay [2], the “activity of lysates” value is recorded as “no significant increase in activity”.

B1: Soybean trypsin inhibitor: protease inhibitor (protein)
chain: DFVLDNEGNPLENGGTYYILSDITAFGGIRAAPTGNERCPLTVVQSRNELDKGIGTIISSPYRIRFIAEGHPLSLKFDSFAVIMLCVGIPTEWSVVEDLPEGPAVKIGENKDAMDGWFRLERVSDDEFNNYKLVFCPQQAEDDKCGDIGISIDHDDGTRRLVVSKNKPLVVQFQKLDKESL
Regarding B1, the “inhibition / inactivation of Atmc9” value in assay [1] was “no significant blocking capacity”. Further, in assay [1] (pH 5.3), the “Activity (%)” value is on record as 73%.

The values above are taken from US20060029995A1, “Novel class of metacaspases” (Vlaams Interuniversitair Instituut Voor Biotechnologie VZW, priority 2003, published 2006).
